Assay results taken from patent US11378572B2, “Therapeutic agent for immune cell migration-caused disease and method for screening same” (ZYMEDI CO., LTD., priority 2017, dated 2022).

Key:
ear skin wound model = experiment: Ear skin wound model (acute inflammatory response); format: in vivo, CX3CR1-GFP mouse; conditions: 100 mg/kg oral once daily, 4 days
Protocol: To investigate the effect of the inhibitor of KRS translocation to the plasma membranes during monocyte infiltration in acute inflammatory responses, an ear skin wound model using CX3CR1-GFP mouse (Stock no. #005582, Jackson Laboratory, Bar Harbor, USA) was prepared. Monocytes, macrophages and Langerhans cells appear green in CX3R1-GFP mice. Mice were administered orally with vehicle or BC-KI-00053 (100 mg/kg, dissolved in vehicle, once daily) for a total of 4 days from 2 days prior to imaging (D−2, D−1, D−0, D+1). For a vehicle, corn oil:polyethylene glycol 400:Tween 80:methyl cellulose (1%)=20:30:1:49 was used. A 31G syringe was used to puncture the skin of the ear (time D−0) to induce acute inflammatory responses. Blood vessels were labeled using anti-CD31 antibody bound to Alexa Flour 555 (identifiable as red). Confocal microscopy was used as an imaging equipment.

[1] = tested on: FHH rats with superimposed hypertension; experiment: FHH rat with superimposed hypertension (uninephrectomy, DOCA, 1% NaCl); format: in vivo
Protocol: Experiments were performed using male FHH rats of 9-12 weeks of age. These animals were provided by the University of Mississippi Medical Center and approved by the American Association for Accreditation of Laboratory Animal Care (AAALAC). All protocols were approved by the Institutional Animal Care and Use Committee of the University of Mississippi Medical Center. Rats were fed ad libitum, and provided with a purified AIN-76 rodent feed containing 0.4% NaCl (Dyets, Bethlehem, Pa.) after weaning. Fawn-hooded hypertensive (FHH) rat is a genetic model of spontaneous hypertension associated with glomerular hyperfiltration and proteinuria. In order to promote glomerular damage in this rat, DOCA strips were implanted after single (one) kidney extraction.
Specifically, FHH rats were anesthetized with isoflurane and telemetry transmitters (model TA11PAC40, Data Sciences International, St. Paul, Minn.) were implanted as described in ‘Williams, J. M. et al. […] Regul Integr Comp Physiol (2012)’. Briefly, surgery was performed under 2% to 3% isoflurane-O2, and the catheter of the device was inserted into the left femoral artery and guided upstream to the aorta. Body part of the telemetry unit was placed in the lateral cavity of the left leg and sutured with muscle tissue. Skin was then closed. To prevent infection, animals were given Baytril (10 mg/kg) and Rimadyl (5 mg/kg), a long-acting analgesic to control surgical pain. After surgery, rats were housed in individual cages in a quiet air-conditioned room environment with a 12:12 hour light-dark cycle and it took a week to fully recover from surgery. Thereafter, the basic mean arterial blood pressure (MAP) and proteinuria were measured for 4 hours (10 am to […]) before the rats were housed in the metabolic cage. Proteinuria was measured using the Bradford method and BSA (Bio-Rad Laboratories, Hercules, Calif.) as a standard.
One week after the transmitter insertion, rats were uninephrectomized as described in Wang, X. et al. Am J Physiol Renal Physiol (2016). Briefly, rats were anesthetized with 2-3% isoflurane-O2 and the right flank was dissected in aseptic condition. The right kidney was gently lifted and threaded tightly around the renal vessels and ureters. The right kidney was extracted by cutting the distal ends of the renal vessels and ureters. The incision was closed with a continuous subcutaneous stitch, after which the skin was further closed. After the rat's right kidney was removed, DOCA pellets (200 mg, Innovative Research of America) was subcutaneously implanted in the neck.
After single kidney extraction and DOCA transplant surgery, rats had recovery time for 3 days. Rats were provided with water containing 1% NaCl in place of distilled water, and randomly divided into two groups: Group 1 (n=15) was administered with BC-KI-00053 (25 mg/kg daily) by gastrointestinal gavage; Group 2 (n=15) was administered with the same volume (2.5 ml/kg daily) of vehicle (corn oil, polyethylene glycol 400, Tween 80 and methylcellulose) by gastrointestinal gavage. Blood pressure and proteinuria were measured weekly for 3 weeks in the experimental group. At the end of the experiment, rats were anesthetized with isoflurane and blood samples were taken to measure creatinine levels. Rats were then flushed with 50 ml of 0.9% NaCl through aorta and perfused with 20 ml of 4% paraformaldehyde. Kidneys and hearts were collected for histological evaluation.
Paraffin sections prepared with a thickness of […] were stained with Masson's trichrome to measure the degree of glomerular damage and renal interstitial fibrosis. Images were obtained using a Nikon Eclipse 55i microscope and NIS-Elements D 3.0 software equipped with Nikon DS-Fil color camera (Nikon, Melville, N.Y.). The degree of glomerular damage was assessed by the blinded experimenter, rating from 0 to 4+ for 30-40 […]. […]

[2] = tested on: 129Sv/J Alport mice (COL4A3 knockout mouse); experiment: Animal model of Alport syndrome; format: in vivo, 129Sv/J mice; conditions: 100 mg/kg oral once a day, 4 weeks
Protocol: The experiment was conducted using 129Sv/J mice (Boys town hospital). Animals groups were (i) 129Sv/J wild-type mice with vehicle administration (0.5% methyl cellulose suspension), (ii) 129Sv/J Alport mice (COL4A3 knockout mouse, Cosgrove D et al., Genes Dev. 1996 Dec. 1, 10(23):2981-92) with vehicle administration (0.5% methyl cellulose suspension) (iii) 129Sv/J Alport mice with BC-KI-00053 administration. Each animal group consists of two mice. BC-KI-00053 was dissolved in 0.5% methyl cellulose suspension and orally administered at a concentration of 100 mg/kg, and kidney fibrosis and the immune cell infiltration were evaluated. Each animal group was treated with a control substance or a test agent once a day from 3 weeks of age for a total of 4 weeks. After 4 weeks of treatment, kidney paraffin sections were stained with collagen I (a marker of fibrosis) and CD45 to observe the extent of leukocyte infiltration. Evaluation of fibrosis and infiltration was performed in the same manner as in the above examples.

[3] = 25 mg/kg daily 3 weeks, Masson's trichrome
[4] = 25 mg/kg daily, after two weeks of treatment
[5] = basal, before treatment, mean±SEM

In the case of COc1ccc(CCN(Cc2ccc(C(=O)O)cc2)c2nc3cccc(F)c3s2)cc1 [BC-KI-00053, 4-({(7-fluorobenzo[d]thiazol-2-yl)[2-(4-methoxyphenyl)ethyl]amino}methyl)benzoic acid], the “infiltration of monocytes and macrophages around skin wound” value (ear skin wound model) was “significantly reduced”, the “renal tissue infiltration of monocytes/macrophages (CD68 IHC)” value ([1]; 25 mg/kg daily 3 weeks) was “significantly reduced” and the cortical fibrosis [1, 3] was 5.79±0.48%. The renal medulla fibrosis [1, 3] was 7.40±0.56%, the cardiac fibrosis ([1]; 25 mg/kg daily 3 weeks, Sirius red, right ventricular insertion point) was 9.14±2.18% and the “mean glomerular injury score” value ([1]; 25 mg/kg daily 3 weeks, score 0 to 4+) was 1.49±0.05. For the same molecule, the “body weight reduction during the study period” value ([1]; 25 mg/kg daily gavage, 3 weeks) was “approximately 10%”, the MAP ([1]; 25 mg/kg daily, after one week of treatment) was 174.4±3.83 mmHg and the MAP [1, 4] was 168.8±3.74 mmHg. It also gave a proteinuria [1, 4] of 285.5 ± 47.48 mg/day, a plasma creatinine concentration ([1]; 25 mg/kg daily, end of experiment) of 0.48 ± 0.02 mg/dL and a proteinuria ([1]; 25 mg/kg daily, study completed (3 weeks)) of 433.1 ± 60.59 mg/day. For the same molecule, the MAP ([1]; 25 mg/kg daily, three weeks) was 176.9±5.83 mmHg, the MAP [1, 5] was 120.1±0.62 mmHg and the basal body weight [1, 5] was 304.7 ± 5.39 g. The proteinuria ([1]; baseline, before treatment) was 51.0 ± 4.9 mg/day, the “fibrosis in the kidneys (collagen I)” value [2] was “reduced down to the normal level” and the “leukocyte infiltration in the kidneys (CD45)” value [2] was “reduced down to the normal level”.
